# Results as given in PubChem BioAssay (NCI).
#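 In this assay, cells in 96-well plates receive the compound at five concentrations for 48 hours. Endpoints are linearly interpolated between the surrounding concentrations. Here, GI50 denotes the concentration required for 50% inhibition of growth. Definition used: TGI = concentration required for complete inhibition of growth.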
# What was measured:
# Assay in all cases: inhibition of tumour cell growth, NCI panel, 48 h
# [1] = test system: A498 renal
# [2] = test system: EKVX NSCLC
# [3] = test system: OVCAR-8 ovarian
# [4] = test system: PC-3 prostate
# [5] = test system: SF-539 CNS
# [6] = test system: SK-MEL-2 melanoma
# [7] = test system: SNB-75 CNS
# [8] = test system: UACC-62 melanoma
# [9] = test system: HCC-2998 colon
# [10] = test system: SW-620 colon
Structure (SMILES),TGI [1] [µM],TGI [2] [µM],TGI [3] [µM],TGI [4] [µM],TGI [5] [µM],TGI [6] [µM],TGI [7] [µM],TGI [8] [µM],TGI [9] [µM],TGI [10] [µM],GI50 [1] [µg/mL],GI50 [2] [µg/mL],GI50 [9] [µg/mL],GI50 [3] [µg/mL],GI50 [6] [µg/mL],GI50 [7] [µg/mL],GI50 [8] [µg/mL]
CC(=O)Nc1nc2c(=O)c3ccccc3sc2s1,> 100,> 100,> 100,> 100,> 100,> 100,> 100,> 100,–,–,–,–,–,–,–,–,–
CCN(CC)/[N+]([O-])=N/OS(=O)(=O)N(C)C,> 100,> 100,> 100,–,> 100,–,> 100,> 100,> 100,> 100,–,–,–,–,–,–,–
CC(C)C(=O)Cc1ccc2ccccc2n1,> 100,> 100,> 100,> 100,–,> 100,> 100,> 100,> 100,> 100,–,–,–,–,–,–,–
N#CC1=C(S)N(C2OC(CO)C(O)C(O)C2O)C(c2ccccc2)=CC1c1ccco1 (configuration not stated),> 100,–,> 100,> 100,> 100,> 100,45.1,42.1,> 100,–,–,–,–,–,–,–,–
CC(=O)n1c2ccc(Br)cc2c2nc3ccccc3nc21,–,> 100,> 100,> 100,> 100,> 100,> 100,> 100,> 100,> 100,–,–,–,–,–,–,–
Cc1cc2nnn(C3CCCCO3)c2cc1C (configuration not stated),–,> 100,> 100,> 100,> 100,> 100,> 100,> 100,> 100,–,–,–,–,–,–,–,–
C=CCN(c1cc(O)c2c(c(C)cn2S(=O)(=O)c2ccccc2)c1[N+](=O)[O-])S(C)(=O)=O,> 100,> 100,> 100,> 100,> 100,> 100,> 100,–,> 100,> 100,–,–,–,–,–,–,–
O=C(c1c(F)c(F)c(F)c(F)c1F)n1c(=S)n(C(=O)c2c(F)c(F)c(F)c(F)c2F)c2ccccc21,–,–,> 100,> 100,> 100,> 100,> 100,> 100,> 100,> 100,–,–,–,–,–,–,–
CC1C(OS(=O)(=O)c2ccc3[nH]c(=S)sc3c2)CC2C3(C)CCC2(C(C)C(=O)O)C(O)C13 (configuration not stated),> 100,> 100,54.6,> 100,46,81.7,–,63.3,> 100,–,–,–,–,–,–,–,–
CC[C@@H]1CC[C@@H]2[C@H](CC[C@]3(C)[C@@H](O[N+](=O)[O-])CC[C@@H]23)[C@H]1C(C)=O,95.9,80.9,> 100,74.9,> 100,–,> 100,–,> 100,> 100,–,–,–,–,–,–,–
O=C1/C(=C/c2ccc(Br)s2)NC(=S)N1CN1CCCCC1,91.7,> 100,> 100,88.3,–,37.1,> 100,> 100,> 100,> 100,–,–,–,–,–,–,–
COc1cc(Nc2nc3cc(C)ccc3nc2-c2ccccc2)cc(OC)c1OC,> 100,> 100,> 100,–,–,45.3,> 100,63.6,44.2,> 100,–,–,–,–,–,–,–
COC(=O)c1c(C)cccc1C1CN=NC12Cc1cc(C)c(C)cc1C2=O (configuration not stated),–,> 100,> 100,> 100,> 100,> 100,> 100,> 100,> 100,> 100,–,–,–,–,–,–,–
CC(C)(C)OC(=O)CC(NC(=O)OCc1ccccc1)NC(=O)OC(C)(C)C (configuration not stated),–,–,–,–,–,–,–,–,–,–,76.4,38.8,94.4,57.5,48.1,20.8,57.2
N/C(CCSCCSCC/C(N)=N\O)=N\O,–,> 100,–,> 100,> 100,–,> 100,> 100,> 100,> 100,–,–,–,–,–,–,–
CS(=O)(=O)CCC1CCC(=O)O1 (configuration not stated),> 100,> 100,> 100,> 100,> 100,–,> 100,–,> 100,> 100,–,–,–,–,–,–,–
O=[N+]([O-])c1ccc2c3c1[C@@H]1O[C@@H]1c1cccc(c1-3)[C@@H]1O[C@H]21,8.87,20.4,4.46,> 28.5,4.02,> 23.7,17.5,31.6,–,6.7,–,–,–,–,–,–,–
CCN(CC)c1ccc(Cl)c2c1C(O)(C(C)C)C2(C)C (configuration not stated),35.7,–,33.4,–,34.2,29.4,32,–,30.3,32.6,–,–,–,–,–,–,–
O=c1[nH]c2ccccc2c2oc3ccccc3c12,> 100,> 100,> 100,> 100,> 100,–,32.6,> 100,> 100,> 100,–,–,–,–,–,–,–
CN(CC(=O)Nc1ccccc1C(=O)O)c1ccccc1,> 100,> 100,> 100,> 100,> 100,–,> 100,–,> 100,> 100,–,–,–,–,–,–,–
CC(=O)Nc1ccc2c(c1)C(=O)c1ccccc1-2,–,> 100,> 100,–,> 100,–,> 100,> 100,> 100,> 100,–,–,–,–,–,–,–
Cc1nn(C(=O)Cc2ccccc2)c2c1C(c1ccc(/C=C/c3ccccc3)cc1)SC(N)=N2 (configuration not stated),> 100,> 100,> 100,> 100,> 100,–,> 100,> 100,> 100,> 100,–,–,–,–,–,–,–
CCOC(OCC)(OCC)C(Br)CC (configuration not stated),> 100,> 100,> 100,–,> 100,> 100,> 100,> 100,> 100,–,–,–,–,–,–,–,–
O=C(OC1OC2COC(=O)c3cc(O)c(O)c(O)c3-c3c(cc(O)c(O)c3O)C(=O)OC3C2OC(=O)[C@@]24CC(=O)[C@@](O)(OC25C(=O)O[C@H]2[C@@H](O)CO[C@@]25O)C2(O)Oc5c(O)c(O)cc(c5C24)C(=O)OC13)c1cc(O)c(O)c(O)c1 (some centres not stated),> 100,> 100,> 100,> 100,–,> 100,> 100,> 100,> 100,> 100,–,–,–,–,–,–,–
